Consider four compounds from patent publication US5036080A, “(D)-6-fluoro-2,3-dihydro-2',5-dioxo-spiro[4H-1-benzo pyran-4,4'-imidazolide]-2-carboxamide compounds” (Sanwa Kagaku Kenyusho Co., Ltd., priority 1988, dated 1991).

The subject of assay [1] is aldose reductase. Particulars: cited from earlier work.
In assay [2] the target is T1, aldose reductase (Rattus norvegicus, UniProt P07943).
T1 construct: water-soluble extracts of crystalline lenses extracted from tested rats; from tissue; host or cells: rat crystalline lens, water-soluble extract
The assay can be described thus: Inhibition of aldose reductase activity (procedure of Kador and Sharpless). Format: biochemical. To be noted: water-soluble extracts of crystalline lenses from rats. The protocol:
Using water-soluble extracts of crystalline lenses extracted from tested rats, the inhibition of these compounds was determined.

`NC(=O)[C@H]1CC2(NC(=O)NC2=O)c2cc(F)ccc2O1` (single isomer, unassigned) [(d)-6-fluoro-2,3-dihydro-2',5'-dioxo-spiro[4H-1-benzopyran-4,4'-imidazolidine]-2-carboxamide]: the “activity of inhibition to the aldose reductase in vitro and vivo tests, in comparison with other agents (in words)” value in assay [1] is recorded as “remarkable activity of inhibition to the aldose reductase”.
One may read the IC50 as the concentration that gives 50% inhibition. A lower IC50 goes with higher potency. In turn, `COC(=O)N1C(=O)NC2(CC(C(N)=O)Oc3ccc(F)cc32)C1=O` (single isomer, unassigned) [Example 3] showed an IC50 in assay [2] of 0.045 µM. This counts as double-digit nanomolar.
Same read-out and setting: with `CC(C)(C)C(=O)OCN1C(=O)NC2(C[C@H](C(N)=O)Oc3ccc(F)cc32)C1=O` (single isomer, unassigned) [Example 6, (d)-6-Fluoro-1'-pivaloyloxymethyl-2,3-dihydro-2',5'-dioxo-spiro[4H-1-benzopyran-4,4'-imidazolidine]-2-carboxamide] the figure was 100 µM.
The compound `Cc1ccc(S(=O)(=O)N2C(=O)NC3(C[C@H](C(N)=O)Oc4ccc(F)cc43)C2=O)cc1` (single isomer, unassigned) [Example 16-A, (d)-6-fluoro-1'-(p-toluenesulfonyl)-2,3-dihydro-2',5'-dioxo-spiro[4H-1-benzopyran-4,4'-imidazolidine]-2-carboxamide] registered an IC50 in assay [2] of 100 µM.
